Assay results published in publication PMC5059921, “Chalepin: isolated from Ruta angustifolia L. Pers induces mitochondrial mediated apoptosis in lung carcinoma cells” (BMC Complementary and Alternative Medicine, 2016).
In brackets after ≈: the same amount, converted by molar mass. Where two headings read alike, the source gives them in different places.

What was measured:
[1] = system: A-549 tumour cell line; conditions: cited from earlier work
[2] = system: A549 cell line; assay: SRB in vitro cytotoxicity screening; type: cell-based, human; conditions: Homo sapiens, A549, isolated compounds
Experimental: (§1) The human cell lines A549 (lung cancer) and Ca Ski (cervical cancer) were cultured as monolayer in RPMI 1640 growth media whereas HCT-116 (colon cancer) and MRC5 (human normal lung fibroblasts) was cultured in McCoy’s 5A and EMEM medium, respectively. All cells were purchased from the […] (ATCC, USA). All the media were supplemented with 10 % v/v foetal bovine serum (FBS), 100 μg/mL penicillin/streptomycin, and 50 μg/mL amphotericin B. The cells were cultured in a 5 % CO2 incubator at 37 °C.
(§2) The monolayer cell culture was detached using accutase and the cell count was adjusted to 2.5 x10^5 -3.0 x10^5 cells/mL using medium containing feotal bovine serum. The cells were then plated into 96 wells with a cell density of 5000-7000 cells/well and then incubated for 24 h to allow adherence of cells to the base of well of the plates. The media was then removed and 200 μl of fresh media containing different concentration of various extracts or isolated compounds were added. Cisplatin was used as the positive control. The plates were incubated for 24, 48 and 72 h at 37 °C and 5 % CO2. The cytotoxicity of the extracts and isolated compounds were screened using the […] (SRB) assay. This assay was first described by Houghton in 2007 [8]. The incubation was halted by gentle addition of 50 μl ice cold 4 % trichloroacetic acid (TCA) to each well and the plates were incubated at 4 °C for 1 h. Then, the supernatant was discarded and the plates were washed with distilled water for 5 times and then air dried. SRB dye, 50 μl, (0.4 % w/v) was added into each well and the treated cells and control were incubated at room temperature for 30 min. The unbound dye was removed by rapid washing four times with 1 % acetic acid. The plates were then air dried and 100 μl of tris base (10 mM unbuffered, pH 10.5) was added and the plates were shaken at 500 rpm for 5 min to solublize the bound SRB stain. The plates were then read with an ELISA reader (Synergy H1 Hybrid) at an absorbance of 492 nm.

[3] = system: MRC5 (human normal lung fibroblasts); assay: SRB in vitro cytotoxicity screening (toxicity to normal cells); type: cell-based; conditions: Homo sapiens, MRC5, isolated compounds, 72 h, read-out: IC50 in μg/ml (μM) (MRC5) 72 h (converted)
Experimental: as §1, §2

[4] = system: Hela: Human cervix epithelioid carcinoma; design: method as in earlier work; conditions: cited from earlier work
[5] = system: Hepa: Human hepatoma; design: method as in earlier work; conditions: cited from earlier work
[6] = system: DLD (DLD-1): Human colon adenocarcinoma; design: method as in earlier work; conditions: cited from earlier work
[7] = system: washed rabbit platelets; design: method as in earlier work; conditions: cited from earlier work; for % inhibition of platelet aggregation, inducer AA: AA 100 /c109/c77; for % inhibition of platelet aggregation, inducer Col: collagen 10 /c109g/mL; for % inhibition of platelet aggregation, inducer PAF: PAF 2ng/mL; for % inhibition of platelet aggregation, inducer Thr: thrombin 0.1 U/mL
[8] = system: hepatitis C virus, hepatoma cell line (Huh7.5); design: method as in PMID 25454460; conditions: cited from earlier work
[9] = system: cervical carcinoma (HeLa); design: method as in PMID 17109253; conditions: arborinine isolated from Ruta graveolens; cited from earlier work
[10] = system: breast adenocarcinoma (MCF-7); design: method as in PMID 17109253; conditions: arborinine isolated from Ruta graveolens; cited from earlier work
[11] = system: skin epidermoid carcinoma (A431); design: method as in PMID 17109253; conditions: arborinine isolated from Ruta graveolens; cited from earlier work
[12] = 48 h, value in brackets, read-out: IC50 in μg/ml (μM) (A549) 48 h (converted)
[13] = 48 h, read-out: IC50 in μg/ml (μM) (A549) 48 h (converted)
[14] = 72 h, value in brackets, read-out: IC50 in μg/ml (μM) (A549) 72 h (converted)
[15] = 72 h, read-out: IC50 in μg/ml (μM) (A549) 72 h (converted)

CC(=O)O[C@H]1C(=O)[C@@]2(C)[C@H]([C@H](OC(=O)c3ccccc3)[C@]3(O)C[C@H](OC(=O)[C@H](O)[C@@H](NC(=O)c4ccccc4)c4ccccc4)C(C)=C1C3(C)C)[C@]1(OC(C)=O)CO[C@@H]1C[C@@H]2O [Taxol, reference compound]
IC50 A-549 [1]: 16.6 µg/mL (≈ 19.4 µM)

C=CC(C)(C)c1cc2cc3c(cc2oc1=O)OC(C(C)(C)OC(C)=O)C3 (stereo not shown) [Rutamarin, rutamarin]
IC50 [2, 12]: 158 µM
IC50 [2, 13]: 56.3 ± 1.53 µg/mL
IC50 [2, 14]: 192 µM
IC50 [2, 15]: 68.5 ± 3.06 µg/mL
IC50 against A549 cell line [1]: 1.318 µg/mL (≈ 3.7 µM)
IC50 ([3]; value in brackets): > 281 µM
IC50 [3]: > 100 µg/mL

graveolinine [Compound 16]
ED50 Hela [4]: - (“-“: ED50 /c6220 /c109g/mL)
ED50 Hepa [5]: - (“-“: ED50 /c6220 /c109g/mL)
ED50 DLD [6]: - (“-“: ED50 /c6220 /c109g/mL)
% inhibition of platelet aggregation, inducer AA ([7]; Conc. 0.2 /c109g/mL): 6.8%
% inhibition of platelet aggregation, inducer AA ([7]; Conc. 0.5 /c109g/mL): 14.9%
% inhibition of platelet aggregation, inducer Col ([7]; Conc. 0.5 /c109g/mL): 5.8%
% inhibition of platelet aggregation, inducer AA ([7]; Conc. 1 /c109g/mL): 26.9%
% inhibition of platelet aggregation, inducer Col ([7]; Conc. 1 /c109g/mL): 19.2%
% inhibition of platelet aggregation, inducer AA ([7]; Conc. 2 /c109g/mL): 38.4%
% inhibition of platelet aggregation, inducer Col ([7]; Conc. 2 /c109g/mL): 25.4%
% inhibition of platelet aggregation, inducer AA ([7]; Conc. 5 /c109g/mL): 71.2%
% inhibition of platelet aggregation, inducer Col ([7]; Conc. 5 /c109g/mL): 33.3%
% inhibition of platelet aggregation, inducer AA ([7]; Conc. 10 /c109g/mL): 73.1%
% inhibition of platelet aggregation, inducer Col ([7]; Conc. 10 /c109g/mL): 49.5%
% inhibition of platelet aggregation, inducer AA ([7]; Conc. 20 /c109g/mL): 77.4%
% inhibition of platelet aggregation, inducer Col ([7]; Conc. 20 /c109g/mL): 72.6%
% inhibition of platelet aggregation, inducer AA ([7]; Conc. 50 /c109g/mL): 100.0%
% inhibition of platelet aggregation, inducer Col ([7]; Conc. 50 /c109g/mL): 81.2%
% inhibition of platelet aggregation, inducer AA ([7]; Conc. 100 /c109g/mL): 100.0%
% inhibition of platelet aggregation, inducer PAF ([7]; Conc. 100 /c109g/mL): 34.6%
% inhibition of platelet aggregation, inducer Col ([7]; Conc. 100 /c109g/mL): 100.0%
% inhibition of platelet aggregation, inducer Thr ([7]; Conc. 100 /c109g/mL): 9.0%

rutamarin [Compound 4]
IC50 A-549 [1]: 1318 µg/mL

CCCCCCCCCc1cc(=O)c2ccccc2[nH]1 [pseudane IX]
replication of hepatitis C virus [8]: stop the replication

COc1cc2c(c(O)c1OC)c(=O)c1ccccc1n2C [Arborinine, arborinine]
IC50 [9]: 1.84 µg/mL (≈ 6.45 µM)
IC50 [10]: 11.74 µg/mL (≈ 41.1 µM)
IC50 [2, 12]: 97.2 µM
IC50 [2, 13]: 27.7 ± 0.26 µg/mL
IC50 [2, 14]: 46 µM
IC50 [2, 15]: 13.1 ± 0.06 µg/mL
IC50 [11]: 12.95 µg/mL (≈ 45.4 µM)
IC50 ([3]; value in brackets): 73 µM
IC50 [3]: 20.8 ± 0.15 µg/mL

bergapten [Compound 9]
ED50 Hela [4]: - (“-“: ED50 /c6220 /c109g/mL)
ED50 Hepa [5]: - (“-“: ED50 /c6220 /c109g/mL)
ED50 DLD [6]: - (“-“: ED50 /c6220 /c109g/mL)
% inhibition of platelet aggregation, inducer AA ([7]; Conc. 50 /c109g/mL): 63.5%
% inhibition of platelet aggregation, inducer PAF ([7]; Conc. 50 /c109g/mL): 4.5%
% inhibition of platelet aggregation, inducer Col ([7]; Conc. 50 /c109g/mL): 59.0%
% inhibition of platelet aggregation, inducer Thr ([7]; Conc. 50 /c109g/mL): 7.5%
antiplatelet aggregation activity (in words) ([7]; at 100 /c109g/mL): no obvious activity
